The target of assay [1] is T1, NLPPp (Phytophthora nicotianae, UniProt Q9AT28).
T1 construct: made in house; host or cells: Pichia pastoris
T1 sequence (Q9AT28 20-237): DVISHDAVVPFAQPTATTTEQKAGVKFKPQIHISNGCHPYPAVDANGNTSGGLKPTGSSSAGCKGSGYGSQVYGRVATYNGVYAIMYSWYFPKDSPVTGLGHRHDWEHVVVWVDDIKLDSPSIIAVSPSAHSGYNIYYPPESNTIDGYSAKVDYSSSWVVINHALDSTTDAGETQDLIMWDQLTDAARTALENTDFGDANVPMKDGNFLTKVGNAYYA
Briefly: Surface plasmon resonance binding to immobilized NLPPp. More on the design: species or system Phytophthora parasitica. The note with it: for Kd: SPR, steady-state affinity model, 50 mM MES, 150 mM NaCl, 5% DMSO, pH 5.8. (In general: SPR reads the build-up and loss of mass on a sensor chip optically.)

Assay [2] addresses T1, NLPPp. Briefly: Tobacco leaf infiltration assay, NLPPp-induced necrosis. The class given is in vivo, Phytophthora parasitica. The note with it: 400 nM NLPPp with different concentrations of compound, tobacco leaves, 24 h.
Assay [3] deals with BcNEP1. More on the design: method as in doi:10.1016/j.pmpp.2010.06.003. The note with it: cited from earlier work.
Assay [4] concerns the target T1, NLPPp. Set-up: method as in doi:10.1016/j.pmpp.2010.06.003. The note with it: cited from earlier work.

Structures are written as SMILES. Values joined by “and” are separate entries in the source; they are usually repeats but may differ in a detail not shown here. Equal entries are not always repeated.

For `Cc1ccc2occ(C3N[C@H](C(=O)O)CS3)c(=O)c2c1` (stereo partly drawn) [6C3, (4R)-2-(6-methyl-4-oxo-4H-chromen-3-yl)thiazolidine-4-carboxylic acid], the “SPR binding to NLPPp (in words)” value in assay [1] was “nonspecific binding”. Further, in assay [2], the “effect on NLPPp-induced necrosis” value was “inhibited”.

Regarding `Cc1oc([C@@H](O)[C@H](O)[C@H](O)CO)cc1C(=O)O` [6E11, 2-methyl-5-((1S,2R,3R)-1,2,3,4-tetrahydroxybutyl)furan-3-carboxylic acid, reference compound], the “effect on NLPPp-induced necrosis” value in assay [2] is given as “did not affect NLPPp cytotoxicity”.

A word on the Kd: it is the concentration at which binding is half-saturated. Low values mean higher affinity, high ones lower affinity. In assay [1], `COc1ccc(Nc2ccccc2C(=O)O)cc1` [6G7, 2-((4-methoxyphenyl)amino)benzoic acid] gave a Kd of 71.9 ± 19.1 µM. In addition, the “effect on NLPPp-induced necrosis” value in assay [2] was “inhibited”.

Regarding `O=C(Cc1c[nH]c2ccccc12)Nc1ccccc1CCOC(=O)Cc1c[nH]c2ccccc12` [7C8, 2-(2-(1H-indol-3-yl)acetamido)phenethyl 2-(1H-indol-3-yl)acetate], the Kd in assay [1] is 40.5 µM and ~50 µM. Further, the “effect on NLPPp-induced necrosis” value in assay [2] is “inhibited”.

For `O=C(N/N=C/c1ccc(O)c(O)c1)c1cc2ccccc2cc1O` [dynasore], the “effect on necrosis-inducing action of BcNEP1” value in assay [3] is “reduced”. The “effect against NLPPp” value in assay [4] is “ineffective”.

These data come from article PMC8078777 (PLoS Pathogens, 2021).
